According to ChEMBL document CHEMBL4507289, “Data for DCP probe GSM1” (2021):

Tests used:
[1] = target: Phosphatidylinositol 3-kinase catalytic subunit type 3 (Homo sapiens) (UniProt Q8NEB9); details: Compound concentration 1000.0 nM
[2] = target: Death-associated protein kinase 1 (Homo sapiens) (UniProt P53355); details: Compound concentration 1000.0 nM
[3] = target: Serine/threonine-protein kinase ULK1 (Homo sapiens) (UniProt O75385); details: Compound concentration 1000.0 nM
[4] = target: 5-hydroxytryptamine receptor 2A (Homo sapiens) (UniProt P28223); details: Compound concentration 10.0 uM
[5] = target: Discoidin domain-containing receptor 2 (Homo sapiens) (UniProt Q16832); details: Compound concentration 1000.0 nM
[6] = tested on: Epidermal growth factor receptor (Homo sapiens), P00533 [G719C]; details: Compound concentration 1000.0 nM
[7] = target: Cyclin-dependent kinase 13 (Homo sapiens) (UniProt Q14004); details: Compound concentration 1000.0 nM
[8] = tested on: Receptor-type tyrosine-protein kinase FLT3 (Homo sapiens), P36888 [D835Y]; details: Compound concentration 1000.0 nM
[9] = target: Homeodomain-interacting protein kinase 3 (Homo sapiens) (UniProt Q9H422); details: Compound concentration 1000.0 nM
[10] = target: Tyrosine-protein kinase FRK (Homo sapiens) (UniProt P42685); details: Compound concentration 1000.0 nM
[11] = tested on: Epidermal growth factor receptor (Homo sapiens), P00533 [UNDEFINED MUTATION]; details: Compound concentration 1000.0 nM
[12] = target: Dual specificity tyrosine-phosphorylation-regulated kinase 1A (Homo sapiens) (UniProt Q13627); details: Compound concentration 1000.0 nM
[13] = target: Wee1-like protein kinase 2 (Homo sapiens) (UniProt P0C1S8); details: Compound concentration 1000.0 nM
[14] = target: Misshapen-like kinase 1 (Homo sapiens) (UniProt Q8N4C8); details: Compound concentration 1000.0 nM
[15] = target: Testis-specific serine/threonine-protein kinase 3 (Homo sapiens) (UniProt Q96PN8); details: Compound concentration 1000.0 nM
[16] = target: Serine/threonine-protein kinase SIK1 (Homo sapiens) (UniProt P57059); details: Compound concentration 1000.0 nM
[17] = target: Tyrosine-protein kinase JAK1 (Homo sapiens) (UniProt P23458); details: Compound concentration 1000.0 nM
[18] = target: Protein kinase C iota type (Homo sapiens) (UniProt P41743); details: Compound concentration 1000.0 nM
[19] = target: Tyrosine-protein kinase CSK (Homo sapiens) (UniProt P41240); details: Compound concentration 1000.0 nM
[20] = target: Serine/threonine-protein kinase 3 (Homo sapiens) (UniProt Q13188); details: Compound concentration 1000.0 nM
[21] = target: Serine/threonine-protein kinase PAK 6 (Homo sapiens) (UniProt Q9NQU5); details: Compound concentration 1000.0 nM
[22] = target: Serine/threonine-protein kinase PAK 4 (Homo sapiens) (UniProt O96013); details: Compound concentration 1000.0 nM
[23] = target: Serine/threonine-protein kinase PLK2 (Homo sapiens) (UniProt Q9NYY3); details: Compound concentration 1000.0 nM
[24] = target: Beta-1 adrenergic receptor (Homo sapiens) (UniProt P08588); details: Compound concentration 10.0 uM
[25] = target: Tyrosine-protein kinase Fgr (Homo sapiens) (UniProt P09769); details: Compound concentration 1000.0 nM
[26] = target: Vascular endothelial growth factor receptor 2 (Homo sapiens) (UniProt P35968); details: Compound concentration 1000.0 nM
[27] = target: Macrophage-stimulating protein receptor (Homo sapiens) (UniProt Q04912); details: Compound concentration 1000.0 nM
[28] = target: Cyclin-dependent kinase 14 (Homo sapiens) (UniProt O94921); details: Compound concentration 1000.0 nM
[29] = target: Peripheral plasma membrane protein CASK (Homo sapiens) (UniProt O14936); details: Compound concentration 1000.0 nM
[30] = target: NUAK family SNF1-like kinase 1 (Homo sapiens) (UniProt O60285); details: Compound concentration 1000.0 nM
[31] = target: Serine/threonine-protein kinase pim-1 (Homo sapiens) (UniProt P11309); details: Compound concentration 1000.0 nM
[32] = target: NT-3 growth factor receptor (Homo sapiens) (UniProt Q16288); details: Compound concentration 1000.0 nM
[33] = target: Serine/threonine-protein kinase DCLK2 (Homo sapiens) (UniProt Q8N568); details: Compound concentration 1000.0 nM
[34] = tested on: Phosphatidylinositol 4,5-bisphosphate 3-kinase catalytic subunit alpha isoform (Homo sapiens), P42336 [H1047Y]; details: Compound concentration 1000.0 nM
[35] = target: Cyclin-dependent kinase-like 5 (Homo sapiens) (UniProt O76039); details: Compound concentration 1000.0 nM
[36] = target: Non-receptor tyrosine-protein kinase TYK2 (Homo sapiens) (UniProt P29597); details: Compound concentration 1000.0 nM
[37] = target: Activated CDC42 kinase 1 (Homo sapiens) (UniProt Q07912); details: Compound concentration 1000.0 nM
[38] = target: Serine/threonine-protein kinase PLK4 (Homo sapiens) (UniProt O00444); details: Compound concentration 1000.0 nM
[39] = target: Tyrosine-protein kinase Fes/Fps (Homo sapiens) (UniProt P07332); details: Compound concentration 1000.0 nM
[40] = target: Testis-specific serine/threonine-protein kinase 1 (Homo sapiens) (UniProt Q9BXA7); details: Compound concentration 1000.0 nM
[41] = target: Dual specificity testis-specific protein kinase 1 (Homo sapiens) (UniProt Q15569); details: Compound concentration 1000.0 nM
[42] = tested on: Epidermal growth factor receptor (Homo sapiens), P00533 [L858R]; details: Compound concentration 1000.0 nM
[43] = target: Serine/threonine-protein kinase MRCK gamma (Homo sapiens) (UniProt Q6DT37); details: Compound concentration 1000.0 nM
[44] = tested on: Phosphatidylinositol 4,5-bisphosphate 3-kinase catalytic subunit alpha isoform (Homo sapiens), P42336 [I800L]; details: Compound concentration 1000.0 nM

Sequence of Serine/threonine-protein kinase SIK1 (Homo sapiens) (P57059 whole entry): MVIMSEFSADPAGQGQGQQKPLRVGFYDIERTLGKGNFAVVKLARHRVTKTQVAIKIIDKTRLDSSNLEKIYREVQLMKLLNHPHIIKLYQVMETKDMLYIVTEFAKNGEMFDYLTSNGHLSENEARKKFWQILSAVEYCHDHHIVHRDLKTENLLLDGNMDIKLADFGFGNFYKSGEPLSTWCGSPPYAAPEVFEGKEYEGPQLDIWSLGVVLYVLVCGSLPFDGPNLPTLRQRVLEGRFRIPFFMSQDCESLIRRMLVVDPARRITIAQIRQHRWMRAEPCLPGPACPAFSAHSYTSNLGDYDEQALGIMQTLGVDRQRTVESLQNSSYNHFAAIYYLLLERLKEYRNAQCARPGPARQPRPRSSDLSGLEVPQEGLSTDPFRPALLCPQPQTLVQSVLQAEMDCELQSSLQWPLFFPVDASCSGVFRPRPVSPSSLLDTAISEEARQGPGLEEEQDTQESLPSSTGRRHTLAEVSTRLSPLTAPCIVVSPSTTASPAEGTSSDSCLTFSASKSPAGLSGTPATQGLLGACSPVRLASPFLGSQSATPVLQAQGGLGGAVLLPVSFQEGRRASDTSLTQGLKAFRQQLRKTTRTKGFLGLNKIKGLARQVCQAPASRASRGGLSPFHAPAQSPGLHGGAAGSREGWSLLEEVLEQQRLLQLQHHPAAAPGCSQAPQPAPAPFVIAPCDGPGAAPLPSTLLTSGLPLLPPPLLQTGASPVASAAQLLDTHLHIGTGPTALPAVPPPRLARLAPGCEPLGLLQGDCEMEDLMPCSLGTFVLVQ
Sequence of Peripheral plasma membrane protein CASK (Homo sapiens) (O14936 whole entry): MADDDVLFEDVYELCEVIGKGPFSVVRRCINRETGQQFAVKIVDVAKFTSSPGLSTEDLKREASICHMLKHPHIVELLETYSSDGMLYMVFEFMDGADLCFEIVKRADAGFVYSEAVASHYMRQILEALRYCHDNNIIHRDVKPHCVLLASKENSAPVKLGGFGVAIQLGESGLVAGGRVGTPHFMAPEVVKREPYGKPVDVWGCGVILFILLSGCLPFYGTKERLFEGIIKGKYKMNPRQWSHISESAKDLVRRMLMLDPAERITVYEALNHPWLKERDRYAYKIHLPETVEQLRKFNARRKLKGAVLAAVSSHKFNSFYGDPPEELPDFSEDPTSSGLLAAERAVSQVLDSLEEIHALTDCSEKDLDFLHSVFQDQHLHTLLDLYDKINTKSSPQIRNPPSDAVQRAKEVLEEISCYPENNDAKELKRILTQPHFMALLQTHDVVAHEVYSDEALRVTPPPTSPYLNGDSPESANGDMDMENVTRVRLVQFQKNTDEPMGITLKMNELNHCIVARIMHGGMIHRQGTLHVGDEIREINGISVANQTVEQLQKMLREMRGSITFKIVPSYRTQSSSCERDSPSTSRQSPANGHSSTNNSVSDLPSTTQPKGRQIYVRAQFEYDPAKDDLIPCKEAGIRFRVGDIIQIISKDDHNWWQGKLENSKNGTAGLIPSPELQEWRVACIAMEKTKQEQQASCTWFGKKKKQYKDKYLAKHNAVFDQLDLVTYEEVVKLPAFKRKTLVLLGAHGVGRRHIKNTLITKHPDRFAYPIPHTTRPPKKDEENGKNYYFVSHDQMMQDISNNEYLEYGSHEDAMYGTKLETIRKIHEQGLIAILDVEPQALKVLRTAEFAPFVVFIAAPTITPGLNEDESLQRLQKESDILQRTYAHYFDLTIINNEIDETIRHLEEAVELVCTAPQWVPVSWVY
Sequence of Tyrosine-protein kinase Fgr (Homo sapiens) (P09769 2-529 limits assumed): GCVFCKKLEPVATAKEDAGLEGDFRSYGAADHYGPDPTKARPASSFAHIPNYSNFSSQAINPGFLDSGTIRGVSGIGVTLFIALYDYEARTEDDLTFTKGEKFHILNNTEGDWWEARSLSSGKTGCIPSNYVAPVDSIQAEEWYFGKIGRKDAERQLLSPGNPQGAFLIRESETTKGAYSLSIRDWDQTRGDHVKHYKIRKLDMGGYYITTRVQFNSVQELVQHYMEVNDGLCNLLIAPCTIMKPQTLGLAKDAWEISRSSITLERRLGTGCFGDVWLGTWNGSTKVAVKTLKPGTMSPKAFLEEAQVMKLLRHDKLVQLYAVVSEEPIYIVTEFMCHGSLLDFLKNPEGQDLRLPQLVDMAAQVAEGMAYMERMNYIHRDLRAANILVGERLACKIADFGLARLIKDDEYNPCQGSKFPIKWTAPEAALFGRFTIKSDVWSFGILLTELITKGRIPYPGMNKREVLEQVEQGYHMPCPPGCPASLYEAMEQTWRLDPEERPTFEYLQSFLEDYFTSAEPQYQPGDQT
Sequence of Homeodomain-interacting protein kinase 3 (Homo sapiens) (Q9H422 whole entry, looked up): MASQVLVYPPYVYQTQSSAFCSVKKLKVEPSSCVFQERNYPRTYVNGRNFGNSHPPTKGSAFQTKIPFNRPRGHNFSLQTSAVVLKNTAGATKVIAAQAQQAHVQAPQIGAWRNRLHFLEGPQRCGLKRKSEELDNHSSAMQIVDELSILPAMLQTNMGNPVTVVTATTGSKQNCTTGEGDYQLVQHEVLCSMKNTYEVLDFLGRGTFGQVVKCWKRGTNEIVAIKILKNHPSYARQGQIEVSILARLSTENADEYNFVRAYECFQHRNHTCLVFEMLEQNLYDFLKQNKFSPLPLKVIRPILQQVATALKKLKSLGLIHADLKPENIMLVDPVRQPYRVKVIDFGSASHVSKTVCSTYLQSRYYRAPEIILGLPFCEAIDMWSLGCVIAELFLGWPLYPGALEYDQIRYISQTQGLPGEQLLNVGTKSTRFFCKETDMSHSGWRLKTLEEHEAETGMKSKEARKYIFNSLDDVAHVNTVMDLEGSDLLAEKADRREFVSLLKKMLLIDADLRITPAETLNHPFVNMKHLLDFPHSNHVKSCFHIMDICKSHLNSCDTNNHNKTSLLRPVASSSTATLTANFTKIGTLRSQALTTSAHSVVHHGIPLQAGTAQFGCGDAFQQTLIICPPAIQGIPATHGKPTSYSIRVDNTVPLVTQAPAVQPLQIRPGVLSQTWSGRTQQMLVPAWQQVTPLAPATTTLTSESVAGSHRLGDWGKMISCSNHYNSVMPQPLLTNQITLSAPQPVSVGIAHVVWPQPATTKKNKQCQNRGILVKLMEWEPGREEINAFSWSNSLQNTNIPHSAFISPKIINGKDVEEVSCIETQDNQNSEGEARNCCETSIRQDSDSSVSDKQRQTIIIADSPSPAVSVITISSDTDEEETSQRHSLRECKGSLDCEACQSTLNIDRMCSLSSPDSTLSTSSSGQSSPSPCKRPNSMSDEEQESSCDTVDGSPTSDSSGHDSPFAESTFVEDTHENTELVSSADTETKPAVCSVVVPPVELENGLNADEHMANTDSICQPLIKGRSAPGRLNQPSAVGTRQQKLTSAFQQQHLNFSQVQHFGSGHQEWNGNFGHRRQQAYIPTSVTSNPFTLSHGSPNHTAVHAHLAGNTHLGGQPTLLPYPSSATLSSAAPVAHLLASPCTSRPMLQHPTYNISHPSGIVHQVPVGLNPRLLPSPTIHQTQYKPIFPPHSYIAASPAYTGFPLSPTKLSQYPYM
Sequence of Serine/threonine-protein kinase ULK1 (Homo sapiens) (O75385 whole entry): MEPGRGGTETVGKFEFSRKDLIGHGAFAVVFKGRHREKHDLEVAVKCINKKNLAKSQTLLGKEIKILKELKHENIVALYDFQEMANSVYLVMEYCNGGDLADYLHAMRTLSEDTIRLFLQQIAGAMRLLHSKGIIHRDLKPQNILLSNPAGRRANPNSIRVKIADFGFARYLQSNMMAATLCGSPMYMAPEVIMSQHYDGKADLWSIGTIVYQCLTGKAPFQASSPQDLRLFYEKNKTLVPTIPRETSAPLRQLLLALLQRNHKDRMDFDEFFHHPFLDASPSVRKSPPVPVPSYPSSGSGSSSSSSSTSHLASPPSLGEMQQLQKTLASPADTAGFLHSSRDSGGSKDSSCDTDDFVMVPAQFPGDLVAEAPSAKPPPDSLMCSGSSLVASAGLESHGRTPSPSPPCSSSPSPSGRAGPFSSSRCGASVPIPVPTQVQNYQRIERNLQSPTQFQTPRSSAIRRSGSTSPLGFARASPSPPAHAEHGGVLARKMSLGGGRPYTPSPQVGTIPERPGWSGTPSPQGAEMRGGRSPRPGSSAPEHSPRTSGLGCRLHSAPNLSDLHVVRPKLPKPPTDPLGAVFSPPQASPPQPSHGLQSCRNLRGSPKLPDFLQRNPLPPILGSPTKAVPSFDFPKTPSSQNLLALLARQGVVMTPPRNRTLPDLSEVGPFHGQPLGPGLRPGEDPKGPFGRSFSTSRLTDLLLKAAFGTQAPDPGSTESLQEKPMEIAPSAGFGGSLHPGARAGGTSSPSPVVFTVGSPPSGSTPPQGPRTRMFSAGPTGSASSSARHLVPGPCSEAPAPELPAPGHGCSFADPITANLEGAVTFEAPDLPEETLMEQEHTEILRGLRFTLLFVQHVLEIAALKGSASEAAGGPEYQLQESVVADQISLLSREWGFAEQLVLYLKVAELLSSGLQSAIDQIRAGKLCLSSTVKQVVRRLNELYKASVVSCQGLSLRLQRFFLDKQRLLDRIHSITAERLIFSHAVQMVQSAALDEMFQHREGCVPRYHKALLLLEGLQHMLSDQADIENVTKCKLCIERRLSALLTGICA
Sequence of Serine/threonine-protein kinase 3 (Homo sapiens) (Q13188 whole entry): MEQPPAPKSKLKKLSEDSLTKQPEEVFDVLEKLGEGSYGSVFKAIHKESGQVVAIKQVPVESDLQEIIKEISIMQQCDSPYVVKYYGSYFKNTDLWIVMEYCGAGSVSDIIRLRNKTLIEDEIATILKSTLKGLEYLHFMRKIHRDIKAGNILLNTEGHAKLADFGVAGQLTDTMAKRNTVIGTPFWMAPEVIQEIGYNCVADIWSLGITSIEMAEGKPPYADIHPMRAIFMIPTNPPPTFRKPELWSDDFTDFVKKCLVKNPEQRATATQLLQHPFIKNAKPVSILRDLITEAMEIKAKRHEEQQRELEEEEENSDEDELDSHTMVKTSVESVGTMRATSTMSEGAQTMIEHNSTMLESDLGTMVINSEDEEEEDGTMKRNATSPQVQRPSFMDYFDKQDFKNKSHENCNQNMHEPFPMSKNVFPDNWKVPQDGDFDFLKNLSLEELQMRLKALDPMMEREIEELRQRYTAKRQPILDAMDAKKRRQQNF

COc1cc(-c2cn([C@H]3CCc4c(F)cccc4N(CC(F)(F)F)C3=O)nn2)ccc1-n1cnc(C)c1
inactive: residual activity [1] 100% | residual activity [2] 99% | residual activity [3] 100% | inhibition [4] 11.5% | residual activity [5] 100% | residual activity [6] 94% | residual activity [7] 99% | residual activity [8] 86% | residual activity [9] 100% | residual activity [10] 100% | residual activity [11] 96% | residual activity [12] 84% | residual activity [13] 100% | residual activity [14] 84% | residual activity [15] 97% | residual activity [16] 100% | residual activity [17] 100% | residual activity [18] 100% | residual activity [19] 100% | residual activity [20] 100% | residual activity [21] 100% | residual activity [22] 99% | residual activity [23] 100% | inhibition [24] 2.45% | residual activity [25] 100% | residual activity [26] 100% | residual activity [27] 100% | residual activity [28] 100% | residual activity [29] 71% | residual activity [30] 100% | residual activity [31] 96% | residual activity [32] 95% | residual activity [33] 100% | residual activity [34] 100% | residual activity [35] 91% | residual activity [36] 100% | residual activity [37] 100% | residual activity [38] 100% | residual activity [39] 100% | residual activity [40] 100% | residual activity [41] 100% | residual activity [42] 100% | residual activity [43] 100% | residual activity [44] 66%

COc1cc(-c2cn([C@H]3CCc4ccccc4N(CC(F)(F)F)C3=O)nn2)ccc1-n1ccc(C)n1
inactive: residual activity [1] 100% | residual activity [2] 79% | residual activity [3] 76% | inhibition [4] 5.83% | residual activity [5] 99% | residual activity [6] 100% | residual activity [7] 100% | residual activity [8] 92% | residual activity [9] 83% | residual activity [10] 100% | residual activity [11] 100% | residual activity [12] 83% | residual activity [13] 100% | residual activity [14] 100% | residual activity [15] 100% | residual activity [16] 100% | residual activity [17] 87% | residual activity [18] 100% | residual activity [19] 100% | residual activity [20] 84% | residual activity [21] 100% | residual activity [22] 100% | residual activity [23] 100% | inhibition [24] 3.7% | residual activity [25] 90% | residual activity [26] 79% | residual activity [27] 96% | residual activity [28] 100% | residual activity [29] 80% | residual activity [30] 92% | residual activity [31] 100% | residual activity [32] 98% | residual activity [33] 92% | residual activity [34] 100% | residual activity [35] 87% | residual activity [36] 100% | residual activity [37] 100% | residual activity [38] 73% | residual activity [39] 100% | residual activity [40] 83% | residual activity [41] 93% | residual activity [42] 97% | residual activity [43] 100% | residual activity [44] 76%
